US11746100B2 (GLOBAL BLOOD THERAPEUTICS, INC., priority 2020, dated 2023)

Target: T1, human ferroportin (Homo sapiens, UniProt Q9NP59)
T1 construct: luciferase reporter (read with the Nano-Glo Luciferase Assay System); expressed in transfected cells; host or cells: CHO cells, stably transfected, expression induced with doxycycline
T1 sequence (Q9NP59 1-571): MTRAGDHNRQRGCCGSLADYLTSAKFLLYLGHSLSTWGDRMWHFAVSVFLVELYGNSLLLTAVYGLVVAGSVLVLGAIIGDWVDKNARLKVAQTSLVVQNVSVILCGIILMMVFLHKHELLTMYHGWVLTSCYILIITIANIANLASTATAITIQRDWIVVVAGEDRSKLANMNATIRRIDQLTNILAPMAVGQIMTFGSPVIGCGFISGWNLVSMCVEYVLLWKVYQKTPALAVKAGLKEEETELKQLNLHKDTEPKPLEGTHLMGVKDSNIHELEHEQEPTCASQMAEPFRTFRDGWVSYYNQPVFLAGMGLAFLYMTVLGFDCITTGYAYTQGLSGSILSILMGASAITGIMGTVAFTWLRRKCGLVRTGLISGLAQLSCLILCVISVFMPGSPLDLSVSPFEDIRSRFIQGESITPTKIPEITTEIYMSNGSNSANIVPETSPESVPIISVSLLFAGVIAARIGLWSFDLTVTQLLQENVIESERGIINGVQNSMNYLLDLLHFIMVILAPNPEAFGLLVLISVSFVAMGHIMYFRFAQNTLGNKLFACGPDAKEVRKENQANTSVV
Assay: Biological in-vitro ferroportin internalization assay (luciferase reporter)
Assay type: cell-based
Details: average pEC50; stably-transfected CHO cell line expressing human ferroportin tagged to a luciferase reporter; 6 h incubation with test compound
Method in brief: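 Read-out is Nano-Glo luciferase signal after 6 h compound exposure, with average pEC50 derived. Cells are a stable CHO line carrying luciferase-tagged human ferroportin, pre-loaded 24 h with ferric ammonium citrate and doxycycline-induced for 24 h.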

| SMILES | pEC50 |
| --- | --- |
| CCC(C)(C)NC(=O)CN(C)c1nc(-c2cc(OCCO)ccn2)nc2c1CCC2 [Compound 367, 2-({2-[4-(2-hydroxyethoxy)pyridin-2-yl]-5H,6H,7H-cyclopenta[d]pyrimidin-4-yl}(methyl)amino)-N-(2-methylbutan-2-yl)acetamide] | 8 |
| COc1ccnc(-c2nc3c(c(N(C)CC(=O)NC4CCOCC4)n2)CCC3)c1 [Compound 134, 2-{[2-(4-methoxypyridin-2-yl)-5H,6H,7H-cyclopenta[d]pyrimidin-4-yl](methyl)amino}-N-(oxan-4-yl)acetamide] | 6.9 |
| CN(CC(=O)NC(C)(C)C)c1nc(-c2cc3ccccc3cn2)nc2c1CCC2 [Compound 165, N-tert-butyl-2-{[2-(isoquinolin-3-yl)-5H,6H,7H-cyclopenta[d]pyrimidin-4-yl](methyl)amino}acetamide] | 7.4 |
| CN(c1nc(-c2ccccn2)nc2c1CCC2)C1CCN(c2ccccc2)C1=O (centres unmarked) [Compound 95, 3-{methyl[2-(pyridin-2-yl)-5H,6H,7H-cyclopenta[d]pyrimidin-4-yl]amino}-1-phenylpyrrolidin-2-one] | 7.3 |
| CN(CC(=O)Nc1cncc(OC(F)(F)F)c1)c1nc(-c2cc3ccccc3cn2)nc2c1CCC2 [Compound 283, 2-{[2-(isoquinolin-3-yl)-5H,6H,7H-cyclopenta[d]pyrimidin-4-yl](methyl)amino}-N-[5-(trifluoromethoxy)pyridin-3-yl]acetamide] | 6.6 |
| CN(C)CCOc1ccnc(-c2nc3c(c(N(CC(=O)NC(C)(C)C)CC(F)(F)F)n2)CCC3)c1 [Compound 470, N-tert-butyl-2-[(2-{4-[2-(dimethylamino)ethoxy]pyridin-2-yl}-5H,6H,7H-cyclopenta[d]pyrimidin-4-yl)(2,2,2-trifluoroethyl)amino]acetamide] | 7.2 |
| COc1ccc(NC(=O)CN(C)c2nc(-c3cc4ccccc4cn3)nc3c2CCC3)cn1 [Compound 227, 2-{[2-(isoquinolin-3-yl)-5H,6H,7H-cyclopenta[d]pyrimidin-4-yl](methyl)amino}-N-(6-methoxypyridin-3-yl)acetamide] | 7.2 |
| COc1ccc(NC(=O)CN(C)c2nc(-c3cc(OCCO)ccn3)nc3c2CCC3)nc1 [Compound 209, 2-({2-[4-(2-hydroxyethoxy)pyridin-2-yl]-5H,6H,7H-cyclopenta[d]pyrimidin-4-yl}(methyl)amino)-N-(5-methoxypyridin-2-yl)acetamide] | 8 |
| CN(CC(=O)NC(C)(C)CO)c1nc(-c2cn(C)cn2)nc2c1CCC2 [Compound 143, N-(1-hydroxy-2-methylpropan-2-yl)-2-{methyl[2-(1-methyl-1H-imidazol-4-yl)-5H,6H,7H-cyclopenta[d]pyrimidin-4-yl]amino}acetamide] | 7.2 |
| CN(CC(=O)N1CCCCC1)c1nc(-c2cc(OCCO)ccn2)nc2c1CCC2 [Compound 263, 2-({2-[4-(2-hydroxyethoxy)pyridin-2-yl]-5H,6H,7H-cyclopenta[d]pyrimidin-4-yl}(methyl)amino)-1-(piperidin-1-yl)ethan-1-one] | 8 |
| Cc1cnc(CCNC(=O)CN(C)c2nc(-c3ccccn3)nc3c2CCC3)n1C1CCC1 [Compound 69, N-[2-(1-cyclobutyl-5-methyl-1H-imidazol-2-yl)ethyl]-2-{methyl[2-(pyridin-2-yl)-5H,6H,7H-cyclopenta[d]pyrimidin-4-yl]amino}acetamide] | 7 |
| CN(CC(=O)Nc1ccc(Cl)cc1)c1nc(-c2cc(OC3COC3)ccn2)nc2c1CCC2 [Compound 325, N-(4-chlorophenyl)-2-[methyl({2-[4-(oxetan-3-yloxy)pyridin-2-yl]-5H,6H,7H-cyclopenta[d]pyrimidin-4-yl})amino]acetamide] | 7.9 |
| COc1cccc(NC(=O)CN(C)c2nc(-c3cn(C)cn3)nc3c2CCC3)c1 [Compound 272, N-(3-methoxyphenyl)-2-{methyl[2-(1-methyl-1H-imidazol-4-yl)-5H,6H,7H-cyclopenta[d]pyrimidin-4-yl]amino}acetamide] | 7.8 |
| CC[C@H](O)COc1ccnc(-c2nc3c(c(N(C)CC(=O)NC(C)(C)C)n2)CCC3)c1 [Compound 394, (S)—N-(tert-butyl)-2-((2-(4-(2-hydroxybutoxy)pyridin-2-yl)-6,7-dihydro-5H-cyclopenta[d]pyrimidin-4-yl)(methyl)amino)acetamide] | 8.3 |
| O=C1CN(c2nc(-c3ccccn3)nc3c2CCC3)CCCN1 [Compound 47, 4-[2-(pyridin-2-yl)-5H,6H,7H-cyclopenta[d]pyrimidin-4-yl]-1,4-diazepan-2-one] | 5.7 |
| CN(CC(=O)Nc1ccc(F)cc1)c1nc(-c2cc3cn[nH]c3cn2)nc2c1CCC2 [Compound 289, N-(4-fluorophenyl)-2-[methyl(2-{1H-pyrazolo[3,4-c]pyridin-5-yl}-5H,6H,7H-cyclopenta[d]pyrimidin-4-yl)amino]acetamide] | 7.5 |
| CC(C)NC(=O)CN(C)c1nc(-c2cc(OCCN(C)C)ccn2)nc2c1CC(C)(C)C2 [Compound 455, 2-[(2-{4-[2-(dimethylamino)ethoxy]pyridin-2-yl}-6,6-dimethyl-5H,6H,7H-cyclopenta[d]pyrimidin-4-yl)(methyl)amino]-N-(propan-2-yl)acetamide] | 7.7 |
| [2H]C([2H])([2H])N(CC(=O)NC(C)(C)C)c1nc(-c2cc(OCC(C)(C)O)ccn2)nc2c1CCC2 [Compound 509, N-tert-butyl-2-({2-[4-(2-hydroxy-2-methylpropoxy)pyridin-2-yl]-5H,6H,7H-cyclopenta[d]pyrimidin-4-yl}((2H3)methyl)amino)acetamide] | 8.2 |
| CC1(C)CC[C@H](Nc2nc(-c3ccccn3)nc3c2CCC3)C(=O)N1 [Compound 56, (3S)-6,6-dimethyl-3-{[2-(pyridin-2-yl)-5H,6H,7H-cyclopenta[d]pyrimidin-4-yl]amino}piperidin-2-one] | 6.7 |
| CCC(O)(CC)COc1ccnc(-c2nc3c(c(N(C)CC(=O)NC)n2)CCC3)c1 [Compound 443, 2-({2-[4-(2-ethyl-2-hydroxybutoxy)pyridin-2-yl]-5H,6H,7H-cyclopenta[d]pyrimidin-4-yl}(methyl)amino)-N-methylacetamide] | 7.8 |
| CC(C)[C@H](O)COc1ccnc(-c2nc3c(c(N(C)CC(=O)NC(C)(C)C)n2)CCC3)c1 [Compound 386, N-tert-butyl-2-[(2-{4-[(2S)-2-hydroxy-3-methylbutoxy]pyridin-2-yl}-5H,6H,7H-cyclopenta[d]pyrimidin-4-yl)(methyl)amino]acetamide] | 8.4 |
| COc1cc2c(cn1)N(C(=O)CN(C)c1nc(-c3cc(OCCO)ccn3)nc3c1CCC3)CC2 [Compound 375, 2-({2-[4-(2-hydroxyethoxy)pyridin-2-yl]-5H,6H,7H-cyclopenta[d]pyrimidin-4-yl}(methyl)amino)-1-{5-methoxy-1H,2H,3H-pyrrolo[2,3-c]pyridin-1-yl}ethan-1-one] | 8 |
| COc1ccnc(-c2nc3c(c(N(C)CC(=O)Nc4ccc(=O)n(C)c4)n2)CCC3)c1 [Compound 281, 2-{[2-(4-methoxypyridin-2-yl)-5H,6H,7H-cyclopenta[d]pyrimidin-4-yl](methyl)amino}-N-(1-methyl-6-oxo-1,6-dihydropyridin-3-yl)acetamide] | 7.3 |
| CN(CC(=O)NC1(C)CCOC1)c1nc(-c2cc3cn[nH]c3cn2)nc2c1CCC2 (centres unmarked) [Compound 185, 2-[methyl(2-{1H-pyrazolo[3,4-c]pyridin-5-yl}-5H,6H,7H-cyclopenta[d]pyrimidin-4-yl)amino]-N-(3-methyloxolan-3-yl)acetamide] | 7.2 |
| CCC(O)(CC)COc1ccnc(-c2nc3c(c(N(C)CC(=O)N[C@@H]4CCC[C@@H]4O)n2)CCC3)c1 [Compound 469, 2-({2-[4-(2-ethyl-2-hydroxybutoxy)pyridin-2-yl]-5H,6H,7H-cyclopenta[d]pyrimidin-4-yl}(methyl)amino)-N-[(1R,2S)-2-hydroxycyclopentyl]acetamidede] | 8.3 |
| CN(c1nc(-c2ccccn2)nc2c1CCC2)[C@H]1CCN(c2ccc(F)cc2)C1=O [Compound 206, (3S)-1-(4-fluorophenyl)-3-{methyl[2-(pyridin-2-yl)-5H,6H,7H-cyclopenta[d]pyrimidin-4-yl]amino}pyrrolidin-2-one] | 6.9 |
| C[C@H](CN(C)C)Oc1ccnc(-c2nc3c(c(N(C)CC(=O)NC(C)(C)C)n2)CCC3)c1 [Compound 406, N-tert-butyl-2-{[2-(4-{[(2R)-1-(dimethylamino)propan-2-yl]oxy}pyridin-2-yl)-5H,6H,7H-cyclopenta[d]pyrimidin-4-yl](methyl)amino}acetamide] | 7.7 |
| COc1ccnc(-c2nc3c(c(N(C)[C@H](C)C(=O)NC4CCCCC4)n2)CCC3)c1 [Compound 119, (2R)—N-cyclohexyl-2-{[2-(4-methoxypyridin-2-yl)-5H,6H,7H-cyclopenta[d]pyrimidin-4-yl](methyl)amino}propanamide] | 7.7 |
| CN(CC(=O)NC(C)(C)CCO)c1nc(-c2ccccn2)nc2c1CCC2 [Compound 63, N-(4-hydroxy-2-methylbutan-2-yl)-2-{methyl[2-(pyridin-2-yl)-5H,6H,7H-cyclopenta[d]pyrimidin-4-yl]amino}acetamide] | 7.2 |
